# From PubChem BioAssay AID330 (DTP/NCI, 2004)
# Where “and” joins values, the source holds several entries; their conditions need not be identical. Identical values can stand only once. Toxic doses and inconclusive results are not listed.
# System: P388 leukemia ip, CD2F1 mice, survival T/C
# Test: NCI In Vivo Anticancer Drug Screen. Data for tumor model P388 Leukemia (intraperitoneal) in CD2F1 (CDF1) mice
# Settings: endpoint: median survival time, higher = longer survival
# Outline: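 Mice carrying the transplanted tumor received test compound or vehicle. Survival was recorded in each group, and the value is the treated-group measurement divided by that of the vehicle-treated control group.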
# [1] = dose: 7.5 mg/kg/injection, schedule: Q01DX005 (ip), vehicle: saline with Tween-80
# [2] = dose: 15.0 mg/kg/injection, schedule: Q01DX005 (ip), vehicle: saline with Tween-80
# [3] = dose: 30.0 mg/kg/injection, schedule: Q01DX005 (ip), vehicle: saline with Tween-80
# [4] = dose: 100.0 mg/kg/injection, schedule: Q04DX002 (ip), vehicle: saline with Tween-80
# [5] = dose: 200.0 mg/kg/injection, schedule: Q04DX002 (ip), vehicle: saline with Tween-80
# [6] = dose: 400.0 mg/kg/injection, schedule: Q04DX002 (ip), vehicle: saline with Tween-80
# [7] = dose: 60.0 mg/kg/injection, schedule: Q01DX005 (ip), vehicle: saline with Tween-80
# [8] = dose: 25.0 mg/kg/injection, schedule: Q01DX009 (ip), vehicle: saline with Tween-80
# [9] = dose: 50.0 mg/kg/injection, schedule: Q01DX009 (ip), vehicle: saline with Tween-80
# [10] = dose: 50.0 mg/kg/injection, schedule: Q01DX009 (ip), vehicle: Klucel (hydroxypropylcellulose) (HPC)
# [11] = dose: 100.0 mg/kg/injection, schedule: Q01DX009 (ip), vehicle: Klucel (hydroxypropylcellulose) (HPC)
# [12] = dose: 200.0 mg/kg/injection, schedule: Q01DX009 (ip), vehicle: Klucel (hydroxypropylcellulose) (HPC)
# [13] = dose: 100.0 mg/kg/injection, schedule: Q01DX009 (ip), vehicle: saline with Tween-80
# [14] = dose: 200.0 mg/kg/injection, schedule: Q01DX009 (ip), vehicle: saline with Tween-80
smiles,measurement,setting,value
O=C1NC2C(CC(O)C(O)C2O)c2cc3c(c(O)c21)OCO3 (stereo not given),T/C,"dose: 0.19 mg/kg/injection, schedule: Q01DX009 (ip), vehicle: saline + alcohol",103 % of control
same,T/C,"dose: 0.38 mg/kg/injection, schedule: Q01DX009 (ip), vehicle: saline + alcohol",111 % of control
same,T/C,"dose: 0.75 mg/kg/injection, schedule: Q01DX009 (ip), vehicle: saline + alcohol",116 % of control
same,T/C,"dose: 1.44 mg/kg/injection, schedule: Q01DX009 (ip), vehicle: saline + alcohol",107 % of control
same,T/C,"dose: 1.5 mg/kg/injection, schedule: Q01DX009 (ip), vehicle: saline + alcohol",117 % of control
same,T/C,"dose: 2.88 mg/kg/injection, schedule: Q01DX009 (ip), vehicle: saline + alcohol",115 % of control
same,T/C,"dose: 5.75 mg/kg/injection, schedule: Q01DX009 (ip), vehicle: saline + alcohol",115 % of control
same,T/C,"dose: 11.5 mg/kg/injection, schedule: Q01DX009 (ip), vehicle: saline + alcohol",115 % of control
C[n+]1cccc(NC(=O)c2ccccc2)c1,T/C,[1],102 % of control
same,T/C,[2],99 % of control
same,T/C,[3],113 % of control
COC(=O)C1=C(C2=C(C(=O)OC)CCC2)CCC1,T/C,[4],93 % of control
same,T/C,[5],97 % of control
same,T/C,[6],100 % of control
Nc1[nH]c(=O)ncc1-c1cccc(Cl)c1,T/C,[2],103 % of control
same,T/C,[3],104 % of control
same,T/C,[7],106 % of control and 96 % of control
NC(=S)N/N=C/c1cc(-c2cccc(N)c2)ccn1,T/C,"dose: 6.25 mg/kg/injection, schedule: Q01DX009 (ip), vehicle: saline",121 % of control
same,T/C,"dose: 9.4 mg/kg/injection, schedule: Q04DX003 (ip), vehicle: saline",109 % of control
same,T/C,"dose: 18.8 mg/kg/injection, schedule: Q04DX003 (ip), vehicle: saline",122 % of control
same,T/C,[8],119 % of control
same,T/C,"dose: 25.0 mg/kg/injection, schedule: Q01DX009 (ip), vehicle: saline",150 % of control
same,T/C,[9],122 % of control
same,T/C,"dose: 50.0 mg/kg/injection, schedule: Q01DX009 (ip), vehicle: saline",154 % of control
same,T/C,"dose: 75.0 mg/kg/injection, schedule: Q01DX009 (ip), vehicle: saline with Tween-80",111 % of control and 122 % of control
same,T/C,"dose: 75.0 mg/kg/injection, schedule: Q01DX009 (ip), vehicle: saline",158 % of control
same,T/C,"dose: 150.0 mg/kg/injection, schedule: Q04DX003 (ip), vehicle: saline",123 % of control
COC(=O)Nc1ccc(NC(=O)OC)c2c1C(=O)c1ccccc1C2=O,T/C,"dose: 50.0 mg/kg/injection, schedule: Q01DX005 (ip), vehicle: saline",95 % of control
same,T/C,"dose: 100.0 mg/kg/injection, schedule: Q01DX005 (ip), vehicle: saline",95 % of control
same,T/C,"dose: 200.0 mg/kg/injection, schedule: Q01DX005 (ip), vehicle: saline",88 % of control
O=C(NCCCCCCCNC(=O)C12CC3CC(CC(C3)C1)C2)C12CC3CC(CC(C3)C1)C2,T/C,"dose: 12.5 mg/kg/injection, schedule: Q01DX005 (ip), vehicle: saline with Tween-80",93 % of control
same,T/C,"dose: 25.0 mg/kg/injection, schedule: Q01DX005 (ip), vehicle: saline with Tween-80",89 % of control
same,T/C,"dose: 50.0 mg/kg/injection, schedule: Q01DX005 (ip), vehicle: saline with Tween-80",88 % of control and 89 % of control
CCCCCCCCCCCCCCCCOc1ccccc1CNc1cc(C(F)(F)F)ccc1Cl,T/C,"dose: 100.0 mg/kg/injection, schedule: Q04DX003 (ip), vehicle: other",95 % of control
same,T/C,"dose: 200.0 mg/kg/injection, schedule: Q04DX003 (ip), vehicle: other",100 % of control
same,T/C,"dose: 400.0 mg/kg/injection, schedule: Q04DX003 (ip), vehicle: other",90 % of control
N#CCc1c(Cl)n(-c2ccccc2)c2ccccc12,T/C,"dose: 100.0 mg/kg/injection, schedule: Q01DX001 (ip), vehicle: Klucel (hydroxypropylcellulose) (HPC)",101 % of control
same,T/C,"dose: 200.0 mg/kg/injection, schedule: Q01DX001 (ip), vehicle: Klucel (hydroxypropylcellulose) (HPC)",93 % of control
same,T/C,"dose: 400.0 mg/kg/injection, schedule: Q01DX001 (ip), vehicle: Klucel (hydroxypropylcellulose) (HPC)",88 % of control
CN(C)NC(=S)SCCC(=O)O,T/C,[10],99 % of control
same,T/C,[11],96 % of control
same,T/C,[12],92 % of control
CC1(C)CC(C)(C)C2(OC3=C([Se]2)C(C)(C)CC(C)(C)C3=O)C(=O)C1=O (stereo not given),T/C,[9],100 % of control
same,T/C,[13],118 % of control
same,T/C,[14],117 % of control
Cc1ccc2occ(-c3nnc(NC(=O)c4ccccc4)s3)c(=O)c2c1,T/C,[7],93 % of control
same,T/C,"dose: 120.0 mg/kg/injection, schedule: Q01DX005 (ip), vehicle: saline with Tween-80",86 % of control
CCOC(=O)c1ccc2c(c1)CCC2,T/C,"dose: 50.0 mg/kg/injection, schedule: Q01DX009 (ip), vehicle: acetone",104 % of control
same,T/C,"dose: 100.0 mg/kg/injection, schedule: Q01DX009 (ip), vehicle: acetone",104 % of control
O=c1c2ccccc2nc(-c2ccccc2)n1-c1cc(C(F)(F)F)cc(C(F)(F)F)c1,T/C,"dose: 6.25 mg/kg/injection, schedule: Q01DX009 (ip), vehicle: saline with Tween-80",99 % of control
same,T/C,"dose: 12.5 mg/kg/injection, schedule: Q01DX009 (ip), vehicle: saline with Tween-80",90 % of control
CCCC(=O)Nc1ccc(C2=NNC(=O)C3CC23)cc1 (stereo not given),T/C,"dose: 50.0 mg/kg/injection, schedule: Q01DX005 (ip), vehicle: saline + Tween-80 + alcohol",99 % of control
same,T/C,"dose: 100.0 mg/kg/injection, schedule: Q01DX005 (ip), vehicle: saline + Tween-80 + alcohol",99 % of control
same,T/C,"dose: 200.0 mg/kg/injection, schedule: Q01DX005 (ip), vehicle: saline + Tween-80 + alcohol",97 % of control
COc1ccc(CN2CC(C)N(N=Cc3c4c(O)c5c(O)c(C)c6c(c5c3O)C(=O)C(C)(O/C=C/C(OC)C(C)C(OC(C)=O)C(C)C(O)C(C)C(O)C(C)/C=C/C=C(\C)C(=O)N4)O6)C(C)C2)cc1 (stereo not given),T/C,[8],110 % of control
same,T/C,[9],103 % of control and 116 % of control
same,T/C,"dose: 50.0 mg/kg/injection, schedule: Q01DX009 (ip), vehicle: suspension in saline",112 % of control
same,T/C,[13],113 % of control and 119 % of control
same,T/C,"dose: 100.0 mg/kg/injection, schedule: Q01DX009 (ip), vehicle: suspension in saline",108 % of control
same,T/C,[14],119 % of control
same,T/C,"dose: 200.0 mg/kg/injection, schedule: Q01DX009 (ip), vehicle: suspension in saline",91 % of control
CC1CCCC(C2CC3CCCCC3C(N)[N-]2)[N-]1.CC1CCCC(C2CC3CCCCC3C(N)[N-]2)[N-]1.O=[N+]([O-])O.[Cu+] (stereo not given),T/C,"dose: 25.0 mg/kg/injection, schedule: Q04DX002 (ip), vehicle: suspension in saline",93 % of control
same,T/C,"dose: 50.0 mg/kg/injection, schedule: Q04DX002 (ip), vehicle: suspension in saline",97 % of control
same,T/C,"dose: 100.0 mg/kg/injection, schedule: Q04DX002 (ip), vehicle: suspension in saline",99 % of control and 97 % of control
same,T/C,"dose: 200.0 mg/kg/injection, schedule: Q04DX002 (ip), vehicle: suspension in saline",96 % of control
CCOC(=O)CC(CS(=O)CP(=O)(OCC)OCC)C(=O)OCC (stereo not given),T/C,[1],91 % of control
same,T/C,[2],92 % of control
same,T/C,[3],102 % of control
same,T/C,[7],102 % of control and 110 % of control
CC(C)(C)c1cc(C(C)(C)c2ccccc2)cc(Cc2cc(C(C)(C)c3ccccc3)cc(C(C)(C)C)c2O)c1O,T/C,[9],92 % of control
same,T/C,[13],94 % of control
same,T/C,[14],93 % of control
same,T/C,"dose: 400.0 mg/kg/injection, schedule: Q01DX009 (ip), vehicle: saline with Tween-80",89 % of control
CC(C)CCc1cc(O)ccc1O,T/C,[8],114 % of control
same,T/C,[9],101 % of control
same,T/C,[13],98 % of control
same,T/C,[14],97 % of control
CC(C)(C)N=C(CCC(C#N)(C#N)CCC(=NC(C)(C)C)Nc1ccc([N+](=O)[O-])cc1)Nc1ccc([N+](=O)[O-])cc1,T/C,[9],98 % of control
same,T/C,[13],95 % of control
same,T/C,[14],88 % of control
Cn1nc(CC#N)c2c(=N)n(N)cnc21,T/C,"dose: 25.0 mg/kg/injection, schedule: Q01DX009 (ip), vehicle: Klucel (hydroxypropylcellulose) (HPC)",119 % of control
same,T/C,[10],109 % of control
same,T/C,[11],104 % of control
same,T/C,[12],113 % of control
CCN(CC)C1=NS(=O)(=O)c2ccccc2C(SC)=C1C,T/C,[4],106 % of control
same,T/C,[5],100 % of control
same,T/C,[6],100 % of control
C=CCOc1cccc(OCC=C)c1C,T/C,"dose: 100.0 mg/kg/injection, schedule: Q04DX003 (ip), vehicle: saline with Tween-80",113 % of control
same,T/C,"dose: 200.0 mg/kg/injection, schedule: Q04DX003 (ip), vehicle: saline with Tween-80",100 % of control
same,T/C,"dose: 400.0 mg/kg/injection, schedule: Q04DX003 (ip), vehicle: saline with Tween-80",104 % of control
